Consider 2 molecules from patent US6114572A, “Substituted phenols and thiophenols useful as antioxidant agents” (priority 1997, dated 2000).

Molecules are shown by their SMILES. Read-outs that look alike come from different tables or passages of the source.

Data set [1] has as its system Cholesterol-Fed Female New Zealand White Rabbits. The data set can be described thus: Serum cholesterol, lipoprotein cholesterol and triglycerides in cholesterol-fed rabbits. Type of data set: in vivo, New Zealand White rabbit. The note with it: rabbit serum, 0.4% in diet, 7 days, N = 5, fasted overnight.
Description: Perform five independent experiments in the following manner. […] Solubilize the MDL compounds in 100% ethanol. Spray the chow with the MDL mixtures and allow to dry overnight in a chemical fume hood. Spray control chow with ethanol. […] On day 7, bleed (~2 mL) rabbits (fasted overnight) from a marginal ear vein. Euthanize rabbits by carbon dioxide overdose. Record the total body and liver weights in grams. Record food as grams·days^-1 ·rabbits^-1. Use aliquots of fresh serum for clinical chemistries, lipoprotein cholesterol determination, thiobarbituric acid reactive substances (TBARS) and compound and metabolite concentrations in serum. Freeze livers (~5 gram aliquots) at -20° C. for compound and metabolite concentration determination at a later time.
Allow blood to clot at room temperature for 30 minutes. Obtain serum after centrifugation for 10 min at 5° C. at 3000 rpm in a Beckman GPKR centrifuge with a GH rotor. […] Calculate cholesterol and triglycerides as mg/dL.
Separate lipoprotein fractions (very low density lipoprotein, VLDL, low density lipoprotein, LDL and high density lipoprotein, HDL) on a Sepharose 6HR column (1×30 cm, Pharmacia) attached to a Waters Powerline HPLC system. Inject serum (50 μL) onto the column and elute with phosphate buffered saline, pH 7.4, at a flow rate of 0.5 mL/min. […] Measure absorbance at 500 nm. The lipoprotein subfractions are quantitated as follows:
Data set [2] deals with oxidation of serum lipids. The data set can be described thus: TBARS assay (oxidation of serum lipids) in cholesterol-fed rabbits. The class given is in vivo, New Zealand White rabbit. Particulars: rabbit serum, 0.4% in diet, 7 days, N = 5, CuSO4-initiated, 5 hr. An excerpt: Perform five independent experiments in the following manner. Each study has a control group and 1-5 groups treated with MDL compound (N=5 per group). Feed Female New Zealand White rabbits (Hazelton, ~2.0-2.3 kg) 0.2% cholesterol enriched rabbit chow (Purina #5322) with or without 0.4% MDL compound. Solubilize the MDL compounds in 100% ethanol. Spray the chow with the MDL mixtures and allow to dry overnight in a chemical fume hood. Spray control chow with ethanol. Feed rabbits 100 grams food per day for 7 days (0.6% MDL 103,491 were fed for 14 days); make available water ad libitum. On day 7, bleed (~2 mL) rabbits (fasted overnight) from a marginal ear vein. Euthanize rabbits by carbon dioxide overdose. Record the total body and liver weights in grams. Record food as grams·days^-1 ·rabbits^-1. Use aliquots of fresh serum for clinical chemistries, lipoprotein cholesterol determination, thiobarbituric acid reactive substances (TBARS) and compound and metabolite concentrations in serum. […]
TBARS are a qualitative indication of the oxidation of lipids in a sample. […] Upon incubation with thiobarbituric acid, the absorbance of the aldehydes can be detected at 530-540 nm. […] Measure absorbances at 540 nm using a Biotek model EL311 microplate reader. The nmoles of MDA produced are calculated from a standard curve of 0 to 10 nmoles of MDA prepared from malonaldehyde bis(dimethylacetal). […]

Data set [3] is described as follows: Animal parameters (food, body weight, liver weight) in cholesterol-fed rabbits. The class given is in vivo, New Zealand White rabbit. Particulars: 0.4% in diet, 7 days, N = 5. An excerpt:
Perform five independent experiments in the following manner. Each study has a control group and 1-5 groups treated with MDL compound (N=5 per group). Feed Female New Zealand White rabbits (Hazelton, ~2.0-2.3 kg) 0.2% cholesterol enriched rabbit chow (Purina #5322) with or without 0.4% MDL compound. Solubilize the MDL compounds in 100% ethanol. Spray the chow with the MDL mixtures and allow to dry overnight in a chemical fume hood. Spray control chow with ethanol. Feed rabbits 100 grams food per day for 7 days (0.6% MDL 103,491 were fed for 14 days); make available water ad libitum. On day 7, bleed (~2 mL) rabbits (fasted overnight) from a marginal ear vein. Euthanize rabbits by carbon dioxide overdose. Record the total body and liver weights in grams. Record food as grams·days^-1 ·rabbits^-1. Use aliquots of fresh serum for clinical chemistries, lipoprotein cholesterol determination, thiobarbituric acid reactive substances (TBARS) and compound and metabolite concentrations in serum. Freeze livers (~5 gram aliquots) at -20° C. for compound and metabolite concentration determination at a later time.

In another data set the test system is Male Sprague-Dawley Rats. As to the kind of experiment: Serum clinical chemistries in male Sprague-Dawley rats. The class given is in vivo. How it is done:
Measurement of Antioxidant Activity and Bioavailability of Compounds of Formula (1) By In Vivo Screening in Male Sprague-Dawley Rats
(§1) A typical experiment consists of 4-6 groups of rats (N=5 per group) with 1 group being a control which receives no MDL compound and the other groups being treated with 0.3% MDL compound. […] Mix the MDL compound with approximately 50 grams of food using a mortar and pestle. This is added to the remainder of the food and mixed for 3 hours on a rotary mixer. In the morning of day 5, anesthetize non-fasted rats with carbon dioxide, and collect blood by cardiac puncture. Sacrifice rats by cervical dislocation. Record body weights and liver weights in grams. Record food consumption as grams·day^-1 ·rat^-1. Deaths are recorded as mortality. Use aliquots of fresh serum for clinical chemistries, thiobarbituric acid reactive substances (TBARS) and conjugated diene measurements. Freeze aliquots of serum (~0.5 mL) and whole livers at -20° C. for compound and metabolite concentration determination at a later time.
Allow blood to clot at room temperature for 30 minutes. Obtain serum after centrifugation for 10 min at 4° C. at 3000 rpm in a Beckman J-6M/E centrifuge with a JS-4.2 rotor. […] Calculate ALP, ALT, and AST as units/L. Calculate cholesterol, triglycerides, and glucose as mg/dL.

Data set [4] relates to oxidation of serum lipids. The data set can be described thus: TBARS assay (oxidation of serum lipids) in male Sprague-Dawley rats. The class given is in vivo. Particulars: feed or water, 96 h, rat serum, 4 days, N = 5, CuSO4-initiated, 3 hr, read-out: TBARS, percent of control. How it is done:
as §1
In this assay the oxidation of serum lipids is initiated with CuSO4, resulting in the formation of aldehydes, such as malondialdehyde (MDA). Upon incubation with thiobarbituric acid, the absorbance of the aldehydes can be detected at 530-540 nm. […] Measure TBARS as follows: mix 100 μL of serum with 400 μL of a 5 mmol CuSO4 solution and incubate at 37° C. for 3 hr. Stop the reactions by addition of 1.0 mL of 20% trichloroacetic acid. […] Centrifuge samples briefly to pellet undissolved material, and transfer the supernatants to a 96-well microtiter plate. Measure absorbances at 540 nm using a Biotek model EL311 microplate reader. The nmoles of MDA produced are calculated from a standard curve of 0 to 10 nmoles of MDA prepared from malonaldehyde bis(dimethylacetal). Serum samples from treated rats are compared to serum samples from control rats that received no MDL compound.

Data set [5] can be described thus: Animal parameters (food, body weight, liver weight, mortality) in male Sprague-Dawley rats. Particulars: for mortality at 96 h: po, read-out: mortality (deaths per group); for mortality at 96 h / body wt., percent of control: rat. Type of data set: in vivo. An excerpt: (§2) A typical experiment consists of 4-6 groups of rats (N=5 per group) with 1 group being a control which receives no MDL compound and the other groups being treated with 0.3% MDL compound. Some of the compounds are either repeated at 0.3% or evaluated again at the lower dose of 0.1%. House Male Sprague-Dawley rats, 50-100 g, (Harlan Laboratories, Indianapolis, Ind.) in groups of 5, feeding ad libitum water and Purina Rodent chow (#5002) with or without MDL compound as a dietary admixture for 4 days. Make dietary admixtures (0.3%) by mixing 1.2 grams of an MDL compound with 400 grams of Purina rodent chow (#5002). Mix the MDL compound with approximately 50 grams of food using a mortar and pestle. This is added to the remainder of the food and mixed for 3 hours on a rotary mixer. In the morning of day 5, anesthetize non-fasted rats with carbon dioxide, and collect blood by cardiac puncture. Sacrifice rats by cervical dislocation. Record body weights and liver weights in grams. Record food consumption as grams·day^-1 ·rat^-1. Deaths are recorded as mortality. Use aliquots of fresh serum for clinical chemistries, thiobarbituric acid reactive substances (TBARS) and conjugated diene measurements. Freeze aliquots of serum (~0.5 mL) and whole livers at -20° C. for compound and metabolite concentration determination at a later time.

A short description of data set [6]: HPLC quantitation of compound and metabolite concentration in rat serum and liver. The note with it: in vivo; for concentration at 96 h: po, 0.3% in diet, 4 days.
Excerpt: as §2
Determine serum and liver concentrations of parent compound and the metabolites, bisphenol and diphenoquinone, by reverse phase HPLC using a Waters 990 Powerline system. Homegenize livers (1 gram samples) with 5.0 mL PBS, pH 7.4, using a Polytron tissue homogenizer at setting 5 for 20-30 seconds. Extract serum or liver homogenates as follows: add 100 μL of either serum or homogenate to 2.0 mL diethyl ether:ethanol (3:1) while vortexing the tube. Cap the sample tubes and centrifuge for 10 min at 5° C. at 3500 rpm in a Beckman GPKR centrifuge with a GH 3.7 rotor. Transfer the supernatants to clean tubes and dry under N2. Reconstitute samples with 200 μL of acetonitrile:hexane:0.1 M ammonium acetate (90:6.5:3.5, by vol.). Then, inject 100 μL onto a Waters Deltapak C18-300 Å column, and elute with an 83% acetonitrile:17% water mobile phase at a flow rate of 1.5 mL/min. Record absorbances at the wavelengths of 240, 254, and 420nm. Calculate compound concentrations from known quantities of authentic parent compounds after correction for recovery. […]. Calculate concentrations as μg/mL of serum and μg/g of liver.

For a further data set, the system named is oxidation of lipids. As to the kind of experiment: Conjugated diene lag phase determination in rat serum. Type of data set: in vivo, Sprague-Dawley rat. Particulars: rat pooled serum, 0.3% in diet, 4 days; mean of 2 determinations; not normalized to control.
Excerpt: as §2, with “Use aliquots of fresh serum for clinical chemistries, thiobarbituric acid reactive substances (TBARS) and conjugated diene measurements. Freeze aliquots of serum (~0.5 mL) and whole livers at -20° C. for compound and metabolite concentration determination at a later time.” left out
Conjugated diene lag phase is another indicator of the oxidation of lipids. […] Measure the absorbances of all cuvettes and set the instrument baseline to zero using the lowest absorbing sample. […] Record the absorbance of each cuvette at 2 min intervals for a period of 840 min. […]

[7] abbreviates: rat serum, 0.3% in diet, 4 days, N = 5.
Where [8] appears, read: in vivo, 0.3% in diet, 4 days, N = 5.
The mark [9] stands for this setting: mean N = 5, read-out: Serum Parent (parent compound concentration).

With `CC(C)=CCC[C@H](C)CCOc1cc(C(C)(C)C)c(O)c(C(C)(C)C)c1` [103,294], in data set [1], the “LDL cholesterol, percent of control” value is 82% and the “chol tot. (total cholesterol), percent of control” value is 94%. Further, the “TBARS, percent of control” value in data set [2] turned out to be 35%. In data set [3], the “food (grams eaten per day per rabbit), percent of control” value amounted to 103%. Further, in data set [3] (rabbit), the “body wt., percent of control” value is on record as 100% and the “lw/bw (liver weight/body weight), percent of control” value came out at 105%. In the data set with Male Sprague-Dawley Rats (setting [7]), the “ALP (alkaline phosphatase), percent of control” value was 124%; the “AST (aspartate aminotransferase), percent of control” value amounted to 88%; the “GLUC (glucose), percent of control” value is listed as 103%. In addition, the “ALT (alanine aminotransferase), percent of control” value in the data set on Male Sprague-Dawley Rats (rat, in vivo) came to 132%. In addition, in data set [4], the response vs control in vivo at 0.3 % in diet was 18%. Also, in data set [5] (0.3% in diet, 4 days, N = 5), the “food (grams eaten per day per rat), percent of control” value was 108% and the “body wt., percent of control” value was found to be 101%. Further, the mortality at 96 h in data set [5] (setting [8]) stood at 0%. Moreover, in data set [6] (5760 min), the “Liver Bis (bisphenol concentration)” value turned out to be 0, the “Liver Quin (diphenoquinone concentration)” value was 0, the “Serum Bis (bisphenol concentration)” value is recorded as 0 and the “Serum Quin (diphenoquinone concentration)” value was found to be 0. In addition, the concentration at 96 h in data set [6] (mean N = 5, read-out: Liver Parent (parent compound concentration)) came to 64600 ng/g. The concentration at 96 h in data set [6] (setting [9]) came out at 21700 ng/mL.
`CC(C)=CCCC(C)CCOc1ccc(O)c(C(C)(C)C)c1` (centres unmarked) [105,411]: in the data set on Male Sprague-Dawley Rats (setting [7]), the “ALP (alkaline phosphatase), percent of control” value is listed as 76%; the “ALT (alanine aminotransferase), percent of control” value amounted to 122%; the “AST (aspartate aminotransferase), percent of control” value worked out at 87%. Also, the “GLUC (glucose), percent of control” value in the data set on Male Sprague-Dawley Rats (rat, in vivo) was found to be 96%. For the same molecule, the response vs control in vivo at 0.3 % in diet in data set [4] was determined as 29%. For the same molecule, the “CONJ. DIENE (conjugated diene lag phase)” value with oxidation of lipids is 400 min. Further, in data set [5] (in vivo), the “food (grams eaten per day per rat), percent of control” value came to 95%. For the same molecule, the mortality at 96 h in data set [5] (setting [8]) was 0%. For the same molecule, in data set [5] (0.3% in diet, 4 days, N = 5), the “body wt., percent of control” value is given as 101%. Besides, in data set [6] (5760 min), the “Liver Bis (bisphenol concentration)” value was found to be 0, the “Liver Parent (parent compound concentration)” value is 0, the “Liver Quin (diphenoquinone concentration)” value is given as 0 and the “Serum Bis (bisphenol concentration)” value worked out at 0. Further, in data set [6] (5760 min), the “Serum Quin (diphenoquinone concentration)” value is given as 0. In addition, the concentration at 96 h in data set [6] (setting [9]) came out at 1100 ng/mL.
